Data: the NIST ThermoML archive (doi:10.1021/je800940j)
± gives the expanded uncertainty stated by the source.

Experiments:
[1] = xn = mol fraction of the nth substance listed; details: Liquid; for viscosity: Concentric cylinders viscometry
[2] = 101 kPa, Liquid

Cc1ccccc1 [toluene] + C1CCCCC1
[1], 101 kPa, x2 = 0
Details | mass density [kg/m3] | viscosity [mPa·s]
283.15 K | 876.1 ± 0.63 | 0.6657 ± 0.0084
293.15 K | 866.75 ± 0.65 | 0.5958 ± 0.008
303.15 K | 857.48 ± 0.67 | 0.5368 ± 0.0076
313.15 K | 848.08 ± 0.68 | 0.4859 ± 0.0074
323.15 K | 838.7 ± 0.7 | 0.4408 ± 0.0071

C1CCCCC1 [cyclohexane]
[2]
Details | mass density [kg/m3]
283.15 K | 787.95 ± 0.81
293.15 K | 778.7 ± 0.83
303.15 K | 769.2 ± 0.84
313.15 K | 759.65 ± 0.86
323.15 K | 749.9 ± 0.88

[2], Concentric cylinders viscometry
Details | viscosity [mPa·s]
283.15 K | 1.18 ± 0.011
293.15 K | 0.9847 ± 0.01
303.15 K | 0.8295 ± 0.0093
313.15 K | 0.7061 ± 0.0086
323.15 K | 0.5978 ± 0.008

Cc1ccccc1 [toluene]
[2]
Details | mass density [kg/m3]
283.15 K | 876.1 ± 0.63
293.15 K | 866.75 ± 0.65
303.15 K | 857.48 ± 0.67
313.15 K | 848.08 ± 0.68
323.15 K | 838.7 ± 0.7

[2], Automatic viscometer
Details | viscosity [mPa·s]
283.15 K | 0.6657 ± 0.0033
293.15 K | 0.5958 ± 0.003
303.15 K | 0.5368 ± 0.0027
313.15 K | 0.4859 ± 0.0024
323.15 K | 0.4408 ± 0.0022

C1CC[C@H]2CCCC[C@H]2C1 [cis-decahydronaphthalene] + C1CC[C@H]2CCCC[C@@H]2C1
[1], 101.3 kPa, x1 = 0.4106
Details | mass density [kg/m3] | viscosity [mPa·s]
283.15 K | 887.8 ± 0.47 | 3.097 ± 0.023
293.15 K | 880.25 ± 0.48 | 2.504 ± 0.019
303.15 K | 872.7 ± 0.5 | 2.066 ± 0.016
313.15 K | 865.15 ± 0.52 | 1.734 ± 0.014
323.15 K | 857.65 ± 0.53 | 1.477 ± 0.013
